Measured values from patent US10351546B2, “Pyridin-3-yl acetic acid derivatives as inhibitors of human immunodeficiency virus replication” (priority 2015, dated 2019).
Read-outs that look alike come from different tables or passages of the source.

Tested on: NL-RLuc virus
Experiment: Inhibition of HIV replication (NL-RLuc luciferase reporter virus in MT-2 cells)
Assay type: cell-based
Conditions: Human immunodeficiency virus 1, MT2, 120 h
In short: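 MT-2 cells were infected with NL4-3-derived virus carrying Renilla luciferase in place of part of nef, in RPMI/10% FBS, with serial compound dilutions. Luciferase read after 5 days of multicycle replication. EC50 from the median effect equation, at least 2 experiments.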

Compound	EC50 (read-out: Activity)	EC50 (read-out: EC50 μM)
Cc1nc(CNCc2ccccn2)c(-c2ccc(OCCc3ccc(F)cc3)cc2)c(N2CCC(C)(C)CC2)c1[C@H](OC(C)(C)C)C(=O)O [Example 95, (S)-2-(tert-Butoxy)-2-(4-(4,4-dimethylpiperidin-1-yl)-5-(4-(4-fluorophenethoxy)phenyl)-2-methyl-6-(((pyridin-2-ylmethyl)amino)methyl)pyridin-3-yl)acetic acid]	< 0.1 µM	–
CCOCCOCc1cc(N2CCC(C)(C)CC2)c([C@H](OC(C)(C)C)C(=O)O)c(C)n1 [Example 35, (S)-2-(tert-butoxy)-2-(4-(4,4-dimethylpiperidin-1-yl)-6-((2-ethoxyethoxy)methyl)-2-methylpyridin-3-yl)acetic acid]	0.1 to 1 µM	0.316 µM
Cc1nc(Cc2ccc(F)cc2)c(-c2ccc(OCCc3ccc(F)cc3)cc2)c(N2CCC(C)(C)CC2)c1[C@H](OC(C)(C)C)C(=O)O [Example 170, (S)-2-(tert-Butoxy)-2-(4-(4,4-dimethylpiperidin-1-yl)-6-(4-fluorobenzyl)-5-(4-(4-fluorophenethoxy)phenyl)-2-methylpyridin-3-yl)acetic acid]	< 0.1 µM	–
Cc1cc(F)ccc1CN1CCc2cc(-c3c(CN4CCSCC4)nc(C)c([C@H](OC(C)(C)C)C(=O)O)c3N3CCC(C)(C)CC3)ccc2C1 [Example 122, (S)-2-(tert-Butoxy)-2-(4-(4,4-dimethylpiperidin-1-yl)-5-(2-(4-fluoro-2-methylbenzyl)-1,2,3,4-tetrahydroisoquinolin-6-yl)-2-methyl-6-(thiomorpholinomethyl)pyridin-3-yl)acetic acid]	< 0.1 µM	–
Cc1cc(F)ccc1CN1CCc2cc(-c3c(CN4CCC(F)(F)CC4)nc(C)c([C@H](OC(C)(C)C)C(=O)O)c3N3CCC(C)(C)CC3)ccc2C1 [Example 128, (S)-2-(tert-Butoxy)-2-(6-((4,4-difluoropiperidin-1-yl)methyl)-4-(4,4-dimethylpiperidin-1-yl)-5-(2-(4-fluoro-2-methylbenzyl)-1,2,3,4-tetrahydroisoquinolin-6-yl)-2-methylpyridin-3-yl)acetic acid]	< 0.1 µM	–
Cc1cc(F)ccc1CN1CCc2cc(-c3c(CN4CCC4)nc(C)c([C@H](OC(C)(C)C)C(=O)O)c3N3CCC(C)(C)CC3)ccc2C1 [Example 117, (S)-2-(6-(Azetidin-1-ylmethyl)-4-(4,4-dimethylpiperidin-1-yl)-5-(2-(4-fluoro-2-methylbenzyl)-1,2,3,4-tetrahydroisoquinolin-6-yl)-2-methylpyridin-3-yl)-2-(tert-butoxy)acetic acid]	< 0.1 µM	–
COc1ccccc1NCc1nc(C)c([C@H](OC(C)(C)C)C(=O)O)c(N2CCC(C)(C)CC2)c1-c1ccc(OCCc2ccc(F)cc2)cc1 [Example 91, (S)-2-(tert-Butoxy)-2-(4-(4,4-dimethylpiperidin-1-yl)-5-(4-(4-fluorophenethoxy)phenyl)-6-(((2-methoxyphenyl)amino)methyl)-2-methylpyridin-3-yl)acetic acid]	< 0.1 µM	0.018 µM
Cc1nc(C(=O)N(C)CC2CCCCC2)c(-c2ccc(OCCc3ccc(F)cc3)cc2)c(N2CCC(C)(C)CC2)c1[C@H](OC(C)(C)C)C(=O)O [Example 42, (S)-2-(tert-Butoxy)-2-(6-((cyclohexylmethyl)(methyl)carbamoyl)-4-(4,4-dimethylpiperidin-1-yl)-5-(4-(4-fluorophenethoxy)phenyl)-2-methylpyridin-3-yl)acetic acid]	< 0.1 µM	0.004 µM
Cc1nc(COCc2cccc(Cl)c2)c(-c2ccc(OCCc3ccc(F)cc3)cc2)c(N2CCC(C)(C)CC2)c1[C@H](OC(C)(C)C)C(=O)O [Example 16, (S)-2-(tert-Butoxy)-2-(6-(((3-chlorobenzyl)oxy)methyl)-4-(4,4-dimethylpiperidin-1-yl)-5-(4-(4-fluorophenethoxy)phenyl)-2-methylpyridin-3-yl)acetic acid]	< 0.1 µM	–
CC(=O)N(C)Cc1nc(C)c([C@H](OC(C)(C)C)C(=O)O)c(N2CCC(C)(C)CC2)c1-c1ccc(OCCc2ccc(F)cc2)cc1 [Example 101, (S)-2-(tert-Butoxy)-2-(4-(4,4-dimethylpiperidin-1-yl)-5-(4-(4-fluorophenethoxy)phenyl)-2-methyl-6-((N-methylacetamido)methyl)pyridin-3-yl)acetic acid]	< 0.1 µM	–
CC(=O)N(C)Cc1nc(C)c([C@H](OC(C)(C)C)C(=O)O)c(N2CCC(C)(C)CC2)c1-c1ccc2c(c1)CCN(Cc1ccc(F)cc1C)C2 [Example 143, (S)-2-(tert-Butoxy)-2-(4-(4,4-dimethylpiperidin-1-yl)-5-(2-(4-fluoro-2-methylbenzyl)-1,2,3,4-tetrahydroisoquinolin-6-yl)-2-methyl-6-((N-methylacetamido)methyl)pyridin-3-yl)acetic acid]	< 0.1 µM	–
Cc1cc(F)ccc1CN1CCc2cc(-c3c(CNCC4CCOCC4)nc(C)c([C@H](OC(C)(C)C)C(=O)O)c3N3CCC(C)(C)CC3)ccc2C1 [Example 127, (S)-2-(tert-Butoxy)-2-(4-(4,4-dimethylpiperidin-1-yl)-5-(2-(4-fluoro-2-methylbenzyl)-1,2,3,4-tetrahydroisoquinolin-6-yl)-2-methyl-6-((((tetrahydro-2H-pyran-4-yl)methyl)amino)methyl)pyridin-3-yl)acetic acid]	< 0.1 µM	–
Cc1nc(CNC23CC(C2)C3)c(-c2ccc(OCCc3ccc(F)cc3)cc2)c(N2CCC(C)(C)CC2)c1[C@H](OC(C)(C)C)C(=O)O [Example 174, (S)-2-(6-((Bicyclo[1.1.1]pentan-1-ylamino)methyl)-4-(4,4-dimethylpiperidin-1-yl)-5-(4-(4-fluorophenethoxy)phenyl)-2-methylpyridin-3-yl)-2-(tert-butoxy)acetic acid]	< 0.1 µM	–
Cc1nc(C(=O)O)c(-c2ccc(OCCc3ccc(F)cc3)cc2)c(N2CCC(C)(C)CC2)c1[C@H](OC(C)(C)C)C(=O)O [Example 38, (S)-5-(tert-Butoxy(carboxy)methyl)-4-(4,4-dimethylpiperidin-1-yl)-3-(4-(4-fluorophenethoxy)phenyl)-6-methylpicolinic acid]	0.1 to 1 µM	–
CNc1nc(C)c([C@H](OC(C)(C)C)C(=O)O)c(N2CCC(C)(C)CC2)c1-c1ccc(OCCc2ccc(F)cc2)cc1 [Example 49, (S)-2-(tert-Butoxy)-2-(4-(4,4-dimethylpiperidin-1-yl)-5-(4-(4-fluorophenethoxy)phenyl)-2-methyl-6-(methylamino)pyridin-3-yl)acetic acid]	< 0.1 µM	0.001 µM
Cc1cc(F)ccc1CN1CCc2cc(-c3c(CN4CCCC(F)(F)C4)nc(C)c([C@H](OC(C)(C)C)C(=O)O)c3N3CCC(C)(C)CC3)ccc2C1 [Example 129, (S)-2-(tert-Butoxy)-2-(6-((3,3-difluoropiperidin-1-yl)methyl)-4-(4,4-dimethylpiperidin-1-yl)-5-(2-(4-fluoro-2-methylbenzyl)-1,2,3,4-tetrahydroisoquinolin-6-yl)-2-methylpyridin-3-yl)acetic acid]	< 0.1 µM	–
Cc1nc(/C=C\COC(C)C)c(-c2ccc(OCCc3ccc(F)cc3)cc2)c(N2CCC(C)(C)CC2)c1[C@H](OC(C)(C)C)C(=O)O [Example 55, (S,Z)-2-(tert-Butoxy)-2-(4-(4,4-dimethylpiperidin-1-yl)-5-(4-(4-fluorophenethoxy)phenyl)-6-(3-isopropoxyprop-1-en-1-yl)-2-methylpyridin-3-yl)acetic acid]	< 0.1 µM	–
